# Experimental data as given in EPA's ToxValDB 9.5 (doi:10.2903/j.efsa.2010.1542).
# How the values were obtained:
# Canidae = conditions: chronic; duration: 1 years; oral; Dog Other; organ weight
# Pimephales promelas = conditions: chronic/long-term; duration: 33 days; growth
# Oncorhynchus mykiss = conditions: acute; duration: 96 hours; mortality
# Daphnia magna = conditions: chronic/long-term; duration: 21 days; reproduction
# Apis mellifera = conditions: acute; duration: 48 hours; oral; unspecified; mortality
# Rattus norvegicus = conditions: for NOAEL: organ weight
# Bibionidae = conditions: chronic/long-term; duration: 28 days
# Aphidius rhopalosiphi = assay: LR50; higher = less toxic; conditions: not reported; mortality
structure (smiles),measurement,setting,value
CO/C=C(/C(=O)OC)c1ccccc1Oc1cc(Oc2ccccc2C#N)ncn1 [Azoxystrobin],NOAEL,Canidae,25 mg/kg-day
same,LC50,"Colinus virginianus; acute, oral, diet, mortality",> 5200 mg/kg-day
same,LD50,"Colinus virginianus; acute, oral, mortality",> 2000 mg/kg-day
same,NOEC,Colinus virginianus; reproduction developmental,1200 mg/kg-day
same,LC50,"Tagia sp.; acute, duration: 14 days, mortality",283 mg/kg
same,NOEC,"Tagia sp.; chronic/long-term, duration: 56 days",3 mg/kg
same,NOEC,Pimephales promelas,0.147 mg/L
same,LC50,Oncorhynchus mykiss,0.47 mg/L
same,NOEC,Daphnia magna,0.044 mg/L
same,LD50,Apis mellifera,> 25 µg/piece
same,LD50,"Rattus norvegicus; acute, oral, mortality",> 5000 mg/kg-day
same,NOAEL,"Rattus norvegicus; chronic, duration: 2 years, oral, diet",18 mg/kg-day
same,NOEL,"Rattus norvegicus; reproduction developmental, body weight",32 mg/kg-day
same,NOAEL,"Rattus norvegicus; subchronic, duration: 90 days, oral",21 mg/kg-day
same,NOEC,Bibionidae,0.8 mg/L
same,LR50,Aphidius rhopalosiphi,> 1000 g/ha
